Data: EP0257454A1, “Oil-in-water type fat emulsion of 1-[2-(2,4-dichlorophenyl)-3-methyl-1-pentenyl]-1H-imidazole” (MORISHITA PHARMACEUTICAL CO. LTD., priority 1986, dated 1988)

Tested on: Candida albicans (clinically isolated strain)
Assay: Activity against Candida albicans infection in mice (survival days)
Assay type: in vivo
Details: Mice infected with Candida albicans, tail vein injection; summary of Table 1
Description: Activity against Candia albicans: Male CRJ:ICR mice (5 week age, 10 mice per group) were used. The fat emulsion obtained in Example 1; an injection solution (HCO 60 preparation) wherein the compound [I] was dissolved in a concentration of 2 % (w/v) in an aqueous solution of 10 % (w/v) of polyoxyethylene hydrogenated castor oil and 5 % (w/v) of glucose; and a solvent for the HCO 60 preparation (i.e. an aqueous solution of 10 % (w/v) of polyoxyethylene hydrogenated castor oil and 5 % (w/v) of glucose (as a control) The test mice was infected with Candida albicans (clinically isolated strain) by injecting the microorganism in an amount of 5 x 10^6 cells/mouse through the tail vein. One hour after the infection, the test injection products were each injected through the tail vein, and the survival days of mice were measured. The evaluation of effect was calculated by the following formula: Average survival days in each test group T/C = x 100 Average survival days in control group

`CCC(C)C(=Cn1ccnc1)c1ccc(Cl)cc1Cl` (stereo not shown) [compound [I], 1-[2-(2,4-dichlorophenyl)-3-methyl-1-pentenyl]-1H-imidazole] was tested, and the “effect against the infection (in words)” value was “remarkedly excellent effect against the infection”.
